Reference: patent US20230242552A1, “Nitrogen-Containing Heterocyclic Compound, Preparation Method Therefor and Use Thereof” (280 Bio, Inc, priority 2022, published 2023)

What was measured:
[1] = system: NCI-H358 (KRAS G12C mutation); assay: Proliferation inhibition measured by CTG, NCI-H358; assay type: cell-based, human; conditions: Homo sapiens, NCI-H358, 120 h, CellTiter Glo, 120 hours incubation
Protocol: (§1) NCI-H358 is a human non-small cell lung cancer cell line with KRAS G12C mutation; AGS is a gastric cancer cell line with KRAS G12D mutation; SW480 is a colon cancer cell lines with KRAS G12V mutation; A375 is a wild type malignant melanoma cell line. The proliferation inhibitory effect of the compounds on various mutations was evaluated by determining the proliferation inhibitory activity of the compounds on these cell lines.
(§2) The assay was conducted on either 384-well plates or 96-well plates. The procedures are as follows:
(§3) The cell suspensions were added to 384- or 96-well plates (384-well plate: 40 μL; 96-well plate: 100 μL) except for peripheral wells. The plates were incubated in a carbon dioxide incubator overnight. Prepared compounds (10 concentration gradients by serial 3-fold dilution) were added to the wells. The cell plates were incubated in a carbon dioxide incubator for 120 hours. CellTiter Glo reagent (384 well plate: 25 μL; 96 well plate: 100 μL) was added to the 384- or 96-well plates. The plates were shaken for 10 minutes away from light, and incubated for 10 minutes. The plates were read by EnVision system. Inhibition curves were plotted using XLFit and IC50 values were calculated. “IC50>10 μM” is denoted by “*”, “10 μM≥IC50>1 μM” is denoted by […] is denoted by “***”, “---” means no data.

[2] = system: A375 (wild type malignant melanoma cell line); assay: Proliferation inhibition measured by CTG, A375; assay type: cell-based; conditions: Homo sapiens, A-375, 120 h, CellTiter Glo, 120 hours incubation
Protocol: as §1, §2, §3

[3] = system: SW480 (colon cancer cell lines with KRAS G12V mutation); assay: Proliferation inhibition measured by CTG, SW480; assay type: cell-based; conditions: Homo sapiens, SW480, 120 h, CellTiter Glo, 120 hours incubation
Protocol: as §1, §2, §3

[4] = system: AGS (gastric cancer cell line with KRAS G12D mutation); assay: Proliferation inhibition measured by CTG, AGS; assay type: cell-based; conditions: 120 h, CellTiter Glo, 120 hours incubation
Protocol: as §1, §2, §3

| IC50 [1] [nM] | IC50 [2] [nM] | IC50 [3] [nM] | IC50 [4] [nM] | Compound |
| --- | --- | --- | --- | --- |
| ≤ 1000 | ≤ 1000 | ≤ 1000 | ≤ 1000 | C[C@@H]1Cc2cncc(F)c2CN1c1nc(OC[C@H]2CCCN2C)nc2c1CCN(c1cccc3cccc(F)c13)C2 [Compound 31] |
| ≤ 1000 | ≤ 1000 | ≤ 1000 | ≤ 1000 | C[C@@H]1Cc2cncc(F)c2CN1c1nc(OC[C@@H]2CCCN2C)nc2c1CCN(c1cccc3cccnc13)C2 [Compound 32] |
| ≤ 1000 | ≤ 1000 | ≤ 1000 | ≤ 1000 | C[C@@H]1Cc2cncc(F)c2CN1c1nc(OC[C@@H]2CCCN2C)nc2cc(-c3cccc4cccnc34)ccc12 [Compound 33] |
